Data published in patent publication US10246453B2, “Benzenesulfonamide compounds and their use as therapeutic agents” (Xenon Pharmaceuticals Inc., priority 2016, dated 2019).
Counter-ions that a name gives are not always drawn.

Tests used:
NaV1.5 [1] = molecular target: T1, NaV1.5 (Homo sapiens (Human), UniProt Q14524); test: cell-based
NaV1.6 [2] = molecular target: T2, NaV1.6 (Homo sapiens (Human), UniProt Q9UQD0); test: Sodium Influx Assay (Flux), NaV1.6
NaV1.1 [3] = molecular target: T3, NaV1.1 (Homo sapiens (Human), UniProt P35498); test: Sodium Influx Assay (Flux), NaV1.1; assay type: cell-based; conditions: Trex HEK293 cells, ANG2 dye; arithmetic mean
NaV1.1 [4] = molecular target: T3, NaV1.1; test: Electrophysiological Assay (EP), patch voltage clamp, NaV1.1; assay type: cell-based; conditions: HEK-293 cells, whole-cell patch clamp, inactivated state; arithmetic mean
Experimental: Sodium currents were measured using the patch clamp technique in the whole-cell configuration using either a PatchXpress automated voltage clamp or manually using an Axopatch 200B (Axon Instruments) or Model 2400 (A-M systems) amplifier.
In some studies, the external sodium was reduced by equimolar replacement with choline. […] All recordings were performed at ambient temperature in a bath chamber with a volume of 150 μL. Control sodium currents were measured in 0.5% DMSO. Controls and representative compounds of the invention were applied to the recording chamber through a 4-pinch or 8-pinch valve bath perfusion system manufactured by ALA Scientific Instruments.
Series resistance compensation was applied (60-80%). […] All statistics in this study are given as mean±SD.
The membrane potential was maintained at a voltage where inactivation of the channel is complete. The voltage is then stepped back to a very negative (Vhold=−150 mV) voltage for 20 ms and then a test pulse is applied to quantify the compound block. […] The percent decrease in sodium current following wash-on of compound was taken as the percent block of sodium channels.

NaV1.6 [5] = molecular target: T2, NaV1.6; test: Electrophysiological Assay (EP), patch voltage clamp, NaV1.6; assay type: cell-based; conditions: HEK-293 cells, whole-cell patch clamp, inactivated state; arithmetic mean
NaV1.5 [6] = molecular target: T1, NaV1.5; test: Sodium Influx Assay (Flux), NaV1.5; conditions: read-out: Flux NaV1.5 IC50; Trex HEK293 cells, ANG2 dye; arithmetic mean
[7] = read-out: Flux NaV1.6 IC50, Trex HEK293 cells, ANG2 dye, arithmetic mean

T2 sequence (Q9UQD0 whole entry): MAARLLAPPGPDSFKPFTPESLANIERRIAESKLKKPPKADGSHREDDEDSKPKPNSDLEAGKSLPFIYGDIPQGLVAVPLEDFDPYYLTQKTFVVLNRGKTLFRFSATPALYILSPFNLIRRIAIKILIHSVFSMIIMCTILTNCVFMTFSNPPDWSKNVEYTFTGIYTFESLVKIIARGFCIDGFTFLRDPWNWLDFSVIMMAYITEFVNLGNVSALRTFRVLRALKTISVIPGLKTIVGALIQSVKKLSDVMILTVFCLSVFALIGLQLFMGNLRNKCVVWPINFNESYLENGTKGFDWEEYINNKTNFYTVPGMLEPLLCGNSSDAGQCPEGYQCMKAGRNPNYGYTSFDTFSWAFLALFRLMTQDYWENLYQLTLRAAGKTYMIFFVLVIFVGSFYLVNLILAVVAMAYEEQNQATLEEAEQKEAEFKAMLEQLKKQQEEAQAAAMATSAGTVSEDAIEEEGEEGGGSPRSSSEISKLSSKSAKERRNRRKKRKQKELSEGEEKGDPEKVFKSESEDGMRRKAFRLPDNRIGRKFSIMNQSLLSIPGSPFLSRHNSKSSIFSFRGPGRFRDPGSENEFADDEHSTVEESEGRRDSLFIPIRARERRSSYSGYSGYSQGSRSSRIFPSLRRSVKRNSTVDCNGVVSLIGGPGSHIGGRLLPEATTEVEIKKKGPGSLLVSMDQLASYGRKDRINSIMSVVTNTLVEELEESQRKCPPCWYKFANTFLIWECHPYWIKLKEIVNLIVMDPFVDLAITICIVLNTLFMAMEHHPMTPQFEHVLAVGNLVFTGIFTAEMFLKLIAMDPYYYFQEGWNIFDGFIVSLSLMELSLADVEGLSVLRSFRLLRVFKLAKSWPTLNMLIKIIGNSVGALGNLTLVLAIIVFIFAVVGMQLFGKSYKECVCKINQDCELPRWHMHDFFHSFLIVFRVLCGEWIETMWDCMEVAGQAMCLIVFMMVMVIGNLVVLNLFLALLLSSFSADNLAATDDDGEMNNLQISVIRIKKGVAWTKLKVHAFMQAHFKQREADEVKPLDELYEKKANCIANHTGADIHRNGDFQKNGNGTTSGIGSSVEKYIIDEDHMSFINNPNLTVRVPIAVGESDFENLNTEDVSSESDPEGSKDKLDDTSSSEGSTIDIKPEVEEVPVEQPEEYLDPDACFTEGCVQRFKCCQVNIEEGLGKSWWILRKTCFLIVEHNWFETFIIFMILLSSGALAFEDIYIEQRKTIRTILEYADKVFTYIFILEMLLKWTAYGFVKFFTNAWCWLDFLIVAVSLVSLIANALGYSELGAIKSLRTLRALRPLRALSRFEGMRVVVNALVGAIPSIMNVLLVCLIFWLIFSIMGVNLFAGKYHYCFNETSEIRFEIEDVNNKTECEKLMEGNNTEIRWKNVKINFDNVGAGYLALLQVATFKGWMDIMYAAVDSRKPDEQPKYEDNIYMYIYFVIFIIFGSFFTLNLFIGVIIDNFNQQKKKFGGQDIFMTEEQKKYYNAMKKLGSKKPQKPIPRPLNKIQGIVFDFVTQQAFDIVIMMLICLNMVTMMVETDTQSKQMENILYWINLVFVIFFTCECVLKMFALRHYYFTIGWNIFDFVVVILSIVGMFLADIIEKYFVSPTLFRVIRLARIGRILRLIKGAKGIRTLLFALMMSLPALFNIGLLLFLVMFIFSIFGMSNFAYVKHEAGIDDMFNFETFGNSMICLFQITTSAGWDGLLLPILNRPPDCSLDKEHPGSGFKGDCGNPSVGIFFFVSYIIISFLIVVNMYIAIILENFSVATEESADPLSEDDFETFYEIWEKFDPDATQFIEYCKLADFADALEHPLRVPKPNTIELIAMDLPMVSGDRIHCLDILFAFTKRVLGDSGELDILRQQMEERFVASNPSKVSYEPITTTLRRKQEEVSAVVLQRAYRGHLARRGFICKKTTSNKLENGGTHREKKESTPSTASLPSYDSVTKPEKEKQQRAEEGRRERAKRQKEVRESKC
T1 sequence (Q14524 other isoform, or with tags, fused parts or gaps): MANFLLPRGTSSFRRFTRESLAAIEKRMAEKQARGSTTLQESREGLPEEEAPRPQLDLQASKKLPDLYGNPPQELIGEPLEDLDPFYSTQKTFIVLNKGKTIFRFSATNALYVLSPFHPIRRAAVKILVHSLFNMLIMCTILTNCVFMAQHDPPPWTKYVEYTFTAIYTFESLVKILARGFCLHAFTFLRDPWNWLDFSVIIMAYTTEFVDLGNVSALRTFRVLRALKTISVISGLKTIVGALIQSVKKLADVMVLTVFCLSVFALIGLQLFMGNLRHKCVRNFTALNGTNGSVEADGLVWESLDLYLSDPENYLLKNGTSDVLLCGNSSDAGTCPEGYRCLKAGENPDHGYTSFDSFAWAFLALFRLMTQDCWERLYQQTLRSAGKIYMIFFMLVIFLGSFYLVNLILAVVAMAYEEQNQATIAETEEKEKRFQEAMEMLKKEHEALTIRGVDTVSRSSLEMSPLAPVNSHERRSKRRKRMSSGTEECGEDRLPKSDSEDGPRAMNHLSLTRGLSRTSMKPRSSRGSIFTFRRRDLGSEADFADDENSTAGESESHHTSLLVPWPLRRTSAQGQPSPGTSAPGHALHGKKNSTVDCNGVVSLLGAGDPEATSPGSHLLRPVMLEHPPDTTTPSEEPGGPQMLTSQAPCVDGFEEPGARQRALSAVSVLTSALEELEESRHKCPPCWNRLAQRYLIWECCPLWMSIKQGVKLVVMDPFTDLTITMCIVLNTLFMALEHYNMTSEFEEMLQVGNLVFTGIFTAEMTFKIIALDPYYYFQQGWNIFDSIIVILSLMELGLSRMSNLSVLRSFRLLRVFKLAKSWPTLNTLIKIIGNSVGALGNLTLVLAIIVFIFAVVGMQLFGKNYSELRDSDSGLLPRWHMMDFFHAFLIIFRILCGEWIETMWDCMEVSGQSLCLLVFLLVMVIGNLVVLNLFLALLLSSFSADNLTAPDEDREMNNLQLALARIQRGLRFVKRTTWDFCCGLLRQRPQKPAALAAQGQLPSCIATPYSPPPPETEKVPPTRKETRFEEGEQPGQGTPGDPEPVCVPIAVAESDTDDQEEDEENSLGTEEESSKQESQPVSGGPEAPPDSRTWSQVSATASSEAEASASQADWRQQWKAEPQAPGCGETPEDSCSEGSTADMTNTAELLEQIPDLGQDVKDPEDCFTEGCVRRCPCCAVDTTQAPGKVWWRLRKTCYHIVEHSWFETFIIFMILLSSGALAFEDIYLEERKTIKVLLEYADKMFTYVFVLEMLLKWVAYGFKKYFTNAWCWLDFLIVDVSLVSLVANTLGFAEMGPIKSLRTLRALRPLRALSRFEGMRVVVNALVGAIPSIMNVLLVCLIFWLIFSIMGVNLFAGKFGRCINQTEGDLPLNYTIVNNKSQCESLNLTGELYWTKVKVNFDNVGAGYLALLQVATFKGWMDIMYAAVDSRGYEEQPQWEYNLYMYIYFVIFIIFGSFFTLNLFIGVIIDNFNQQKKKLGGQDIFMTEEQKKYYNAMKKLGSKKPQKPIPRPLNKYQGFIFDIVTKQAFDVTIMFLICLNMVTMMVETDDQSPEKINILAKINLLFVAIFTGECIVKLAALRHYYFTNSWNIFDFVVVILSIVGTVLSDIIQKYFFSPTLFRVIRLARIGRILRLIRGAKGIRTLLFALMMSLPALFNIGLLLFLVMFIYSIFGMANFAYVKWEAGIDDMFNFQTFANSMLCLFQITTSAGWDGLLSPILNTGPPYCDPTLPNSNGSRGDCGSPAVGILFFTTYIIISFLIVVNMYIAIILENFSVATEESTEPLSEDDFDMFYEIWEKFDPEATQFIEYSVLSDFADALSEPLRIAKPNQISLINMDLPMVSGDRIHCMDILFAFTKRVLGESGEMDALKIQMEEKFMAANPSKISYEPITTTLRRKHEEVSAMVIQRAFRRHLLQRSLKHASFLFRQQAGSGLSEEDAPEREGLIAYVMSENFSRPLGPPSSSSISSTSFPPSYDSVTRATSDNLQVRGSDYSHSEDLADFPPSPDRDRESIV

Structure (SMILES): Cc1c(OC2(C)CCN(Cc3ccccc3)C2)cc(F)c(S(=O)(=O)Nc2nccs2)c1F (racemic) [Example 228, rac-4-((1-benzyl-3-methylpyrrolidin-3-yl)oxy)-2,6-difluoro-3-methyl-N-(thiazol-2-yl)benzenesulfonamide 2,2,2-trifluoroacetate]
- IC50 (NaV1.5 [1]): 23.1 µM
- IC50 (NaV1.6 [2]): 0.031 µM
- IC50 (NaV1.1 [3]): 5.27 µM

Structure (SMILES): C[C@H](c1cc(C2CC2)ccc1F)N1CCC(Oc2ccc(S(=O)(=O)Nc3cscn3)cc2Cl)CC1 (stereo in doubt) [Example 320]
- IC50 (NaV1.5 [1]): 4.74 µM
- IC50 (NaV1.6 [2]): 3.24 µM
- IC50 (NaV1.1 [3]): 4.25 µM

Structure (SMILES): CN(c1cc(F)c(S(=O)(=O)Nc2cscn2)cc1Cl)[C@H]1CCN(Cc2cnn(Cc3ccccc3)c2)C1 [Example 165, (S)-4-((1-((1-benzyl-1H-pyrazol-4-yl)methyl)pyrrolidin-3-yl)(methyl)amino)-5-chloro-2-fluoro-N-(thiazol-4-yl)benzene-sulfonamide formate]
- IC50 (NaV1.5 [1]): 6.97 µM
- IC50 (NaV1.6 [2]): 3.34 µM
- IC50 (NaV1.1 [3]): 4.61 µM

Structure (SMILES): C[C@H](c1ccccc1)N1CCC(Oc2cc(F)c(S(=O)(=O)Nc3cscn3)cc2Cl)CC1 [Example 222, (R)-5-chloro-2-fluoro-4-((1-(1-phenylethyl)piperidin-4-yl)oxy)-N-(thiazol-4-yl)benzenesulfonamide 2,2,2-trifluoroacetate]
- IC50 (NaV1.6 [2]; [7]): 0.959 µM
- IC50 (NaV1.1 [4]): > 10 µM
- IC50 (NaV1.6 [5]): 0.278 µM
- IC50 (NaV1.1 [3]): 27.9 µM
- IC50 (NaV1.5 [6]): 19.4 µM

Structure (SMILES): C[C@@]1(Nc2ccc(S(=O)(=O)Nc3cscn3)cc2Cl)CCN(Cc2ccccc2)C1 [Example 225, (R)-4-((1-benzyl-3-methylpyrrolidin-3-yl)amino)-3-chloro-N-(thiazol-4-yl)benzenesulfonamide formate]
- IC50 (NaV1.6 [2]; [7]): 3.9 µM
- IC50 (NaV1.1 [4]): > 10 µM
- IC50 (NaV1.6 [5]): 5.31 µM
- IC50 (NaV1.1 [3]): 5.45 µM
- IC50 (NaV1.5 [6]): 5.55 µM

Structure (SMILES): C[C@]1(Nc2ccc(S(=O)(=O)Nc3cscn3)cc2Cl)CCN(Cc2ccccc2)C1 [Example 226, (S)-4-((1-benzyl-3-methylpyrrolidin-3-yl)amino)-3-chloro-N-(thiazol-4-yl)benzenesulfonamide formate]
- IC50 (NaV1.6 [2]; [7]): 2.43 µM
- IC50 (NaV1.1 [4]): > 10 µM
- IC50 (NaV1.6 [5]): 3.08 µM
- IC50 (NaV1.1 [3]): 11.5 µM
- IC50 (NaV1.5 [6]): 9.04 µM

Structure (SMILES): CC[C@@H](c1ccccc1)N1CC[C@H](N(C)c2cc(F)c(S(=O)(=O)Nc3cscn3)cc2Cl)C1 [Example 242, 5-chloro-2-fluoro-4-(methyl((S)-1-((S)-1-phenylpropyl)pyrrolidin-3-yl)amino)-N-(thiazol-4-yl)benzenesulfonamide]
- IC50 (NaV1.6 [2]; [7]): 0.65 µM
- IC50 (NaV1.1 [4]): > 10 µM
- IC50 (NaV1.6 [5]): 0.668 µM
- IC50 (NaV1.1 [3]): 5.38 µM
- IC50 (NaV1.5 [6]): 9.96 µM

Structure (SMILES): CN(c1cc(F)c(S(=O)(=O)Nc2cscn2)cc1Cl)[C@H]1CCN([C@@H]2CCc3ccccc32)C1 [Example 246, 5-chloro-4-(((S)-1-((R)-2,3-dihydro-1H-inden-1-yl)pyrrolidin-3-yl)(methyl)amino)-2-fluoro-N-(thiazol-4-yl)benzenesulfonamide 2,2,2-trifluoroacetate]
- IC50 (NaV1.6 [2]; [7]): 0.629 µM
- IC50 (NaV1.1 [4]): > 10 µM
- IC50 (NaV1.6 [5]): 1.03 µM
- IC50 (NaV1.1 [3]): 8.51 µM
- IC50 (NaV1.5 [6]): 18.7 µM

Structure (SMILES): CN(c1cc(F)c(S(=O)(=O)Nc2cscn2)cc1Cl)[C@H]1CCN([C@H]2CCc3ccccc32)C1 [Example 249, 5-chloro-4-(((S)-1-((S)-2,3-dihydro-1H-inden-1-yl)pyrrolidin-3-yl)(methyl)amino)-2-fluoro-N-(thiazol-4-yl)benzenesulfonamide 2,2,2-trifluoroacetate]
- IC50 (NaV1.6 [2]; [7]): 0.285 µM
- IC50 (NaV1.1 [4]): > 10 µM
- IC50 (NaV1.6 [5]): 0.11 µM
- IC50 (NaV1.1 [3]): 11.2 µM
- IC50 (NaV1.5 [6]): 17.4 µM

Structure (SMILES): C[C@H](c1ccccc1)N1CC[C@H](N(C)c2ccc(S(=O)(=O)Nc3cscn3)cc2Cl)C1 [Example 251, 3-chloro-4-(methyl((S)-1-((R)-1-phenylethyl)pyrrolidin-3-yl)amino)-N-(thiazol-4-yl)benzenesulfonamide 2,2,2-trifluoroacetate]
- IC50 (NaV1.6 [2]; [7]): 1.51 µM
- IC50 (NaV1.1 [4]): > 10 µM
- IC50 (NaV1.6 [5]): 0.412 µM
- IC50 (NaV1.1 [3]): 7.45 µM
- IC50 (NaV1.5 [6]): 7.32 µM

Structure (SMILES): CN(c1ccc(S(=O)(=O)Nc2cscn2)cc1Cl)[C@H]1CCN(Cc2cccc(C(F)F)c2)C1 [Example 253, (S)-3-chloro-4-((1-(3-(difluoromethyl)benzyl)pyrrolidin-3-yl)(methyl)amino)-N-(thiazol-4-yl)benzenesulfonamide formate]
- IC50 (NaV1.6 [2]; [7]): 0.756 µM
- IC50 (NaV1.1 [4]): 4.76 µM
- IC50 (NaV1.6 [5]): 0.491 µM
- IC50 (NaV1.1 [3]): 2.67 µM
- IC50 (NaV1.5 [6]): 2.52 µM

Structure (SMILES): CN(c1cc(F)c(S(=O)(=O)Nc2cscn2)cc1Cl)[C@H]1CCN(C(C)(C)c2ccccc2)C1 [Example 257, (S)-5-chloro-2-fluoro-4-(methyl(1-(2-phenylpropan-2-yl)pyrrolidin-3-yl)amino)-N-(thiazol-4-yl)benzenesulfonamide formate]
- IC50 (NaV1.6 [2]; [7]): 0.701 µM
- IC50 (NaV1.1 [4]): > 10 µM
- IC50 (NaV1.6 [5]): 0.17 µM
- IC50 (NaV1.1 [3]): 10.3 µM
- IC50 (NaV1.5 [6]): 10.6 µM

Structure (SMILES): CN(c1cc(F)c(S(=O)(=O)Nc2cscn2)cc1Cl)[C@H]1CCN(C2(c3ccccc3)CC2)C1 [Example 259, (S)-5-chloro-2-fluoro-4-(methyl(1-(1-phenylcyclopropyl)pyrrolidin-3-yl)amino)-N-(thiazol-4-yl)benzenesulfonamide 2,2,2-trifluoroacetate]
- IC50 (NaV1.6 [2]; [7]): 1.58 µM
- IC50 (NaV1.1 [4]): 3.52 µM
- IC50 (NaV1.6 [5]): 0.44 µM
- IC50 (NaV1.1 [3]): 3.77 µM
- IC50 (NaV1.5 [6]): 5.81 µM

Structure (SMILES): CN(c1cc(F)c(S(=O)(=O)Nc2cccc(F)n2)cc1Cl)[C@H]1CCN(C(C)(C)c2ccccc2)C1 [Example 260, (S)-5-chloro-2-fluoro-N-(6-fluoropyridin-2-yl)-4-(methyl(1-(2-phenylpropan-2-yl)pyrrolidin-3-yl)amino)benzenesulfonamide 2,2,2-trifluoroacetate]
- IC50 (NaV1.6 [2]; [7]): 1.68 µM
- IC50 (NaV1.1 [4]): 9.64 µM
- IC50 (NaV1.6 [5]): 0.842 µM
- IC50 (NaV1.1 [3]): 7.35 µM
- IC50 (NaV1.5 [6]): 10.1 µM

Structure (SMILES): CCN(c1cc(F)c(S(=O)(=O)Nc2cscn2)cc1Cl)[C@H]1CCN(Cc2ccccc2)C1 [Example 263, (S)-4-((1-benzylpyrrolidin-3-yl)(ethyl)amino)-5-chloro-2-fluoro-N-(thiazol-4-yl)benzenesulfonamide]
- IC50 (NaV1.6 [2]; [7]): 3.1 µM
- IC50 (NaV1.1 [4]): > 10 µM
- IC50 (NaV1.6 [5]): 3.81 µM
- IC50 (NaV1.1 [3]): 4.44 µM
- IC50 (NaV1.5 [6]): 19.1 µM

Structure (SMILES): Cc1c(O[C@H]2CCN(Cc3ccccc3)C2)cc(F)c(S(=O)(=O)Nc2cscn2)c1F [Example 269, (S)-4-((1-benzylpyrrolidin-3-yl)oxy)-2,6-difluoro-3-methyl-N-(thiazol-4-yl)benzenesulfonamide hydrochloride]
- IC50 (NaV1.6 [2]; [7]): 0.647 µM
- IC50 (NaV1.1 [4]): > 10 µM
- IC50 (NaV1.6 [5]): 0.329 µM
- IC50 (NaV1.1 [3]): > 30 µM
- IC50 (NaV1.5 [6]): > 30 µM

Structure (SMILES): Cc1c(N(C)[C@H]2CCN(Cc3ccccc3)C2)cc(F)c(S(=O)(=O)Nc2ccsn2)c1F [Example 279, (S)-4-((1-benzylpyrrolidin-3-yl)(methyl)amino)-2,6-difluoro-N-(isothiazol-3-yl)-3-methylbenzenesulfonamide 2,2,2-trifluoroacetate]
- IC50 (NaV1.6 [2]; [7]): 0.064 µM
- IC50 (NaV1.1 [4]): > 10 µM
- IC50 (NaV1.6 [5]): 0.011 µM
- IC50 (NaV1.1 [3]): 21.2 µM
- IC50 (NaV1.5 [6]): > 30 µM

Structure (SMILES): C[C@H](c1ccccc1)N1CCC(Oc2cc(F)c(S(=O)(=O)Nc3cscn3)c(F)c2Cl)CC1 [Example 283, (R)-3-chloro-2,6-difluoro-4-((1-(1-phenylethyl)piperidin-4-yl)oxy)-N-(thiazol-4-yl)benzenesulfonamide 2,2,2-trifluoroacetate formate]
- IC50 (NaV1.6 [2]; [7]): 0.067 µM
- IC50 (NaV1.1 [4]): > 10 µM
- IC50 (NaV1.6 [5]): 0.037 µM
- IC50 (NaV1.1 [3]): > 30 µM
- IC50 (NaV1.5 [6]): > 30 µM

Structure (SMILES): C[C@H](c1ccccc1)N1CCC(Oc2ccc(S(=O)(=O)Nc3ccncn3)cc2Cl)CC1 [Example 300, (R)-3-chloro-4-((1-(1-phenylethyl)piperidin-4-yl)oxy)-N-(pyrimidin-4-yl)benzenesulfonamide]
- IC50 (NaV1.6 [2]; [7]): 1.07 µM
- IC50 (NaV1.1 [4]): > 10 µM
- IC50 (NaV1.6 [5]): 0.972 µM
- IC50 (NaV1.1 [3]): > 30 µM
- IC50 (NaV1.5 [6]): > 30 µM

Structure (SMILES): C[C@H](c1cc(Cl)ccc1F)N1CCC(Oc2ccc(S(=O)(=O)Nc3cscn3)cc2Cl)CC1 [Example 315, (R)-3-chloro-4-((1-(1-(5-chloro-2-fluorophenyl)ethyl)piperidin-4-yl)oxy)-N-(thiazol-4-yl)benzenesulfonamide]
- IC50 (NaV1.6 [2]; [7]): 1.07 µM
- IC50 (NaV1.1 [4]): 4.25 µM
- IC50 (NaV1.6 [5]): 0.377 µM
- IC50 (NaV1.1 [3]): 5.62 µM
- IC50 (NaV1.5 [6]): 6.38 µM

Structure (SMILES): Cc1c(N(C)[C@H]2CCN(Cc3ccccc3)C2)ccc(S(=O)(=O)Nc2cscn2)c1F [Example 321, (S)-4-((1-benzylpyrrolidin-3-yl)(methyl)amino)-2-fluoro-3-methyl-N-(thiazol-4-yl)benzenesulfonamide 2,2,2-trifluoroacetate]
- IC50 (NaV1.6 [2]; [7]): 0.354 µM
- IC50 (NaV1.1 [4]): > 10 µM
- IC50 (NaV1.6 [5]): 0.137 µM
- IC50 (NaV1.1 [3]): 12.3 µM
- IC50 (NaV1.5 [6]): 21.4 µM
